We go through four molecules from patent US20250034098A1, “CRYSTALLINE SUBSTITUTED PYRAZINES AS PGI2 RECEPTOR AGONISTS” (NIPPON SHINYAKU CO., LTD., priority 2017, published 2025).

In one series the target is PGI2 receptor (Homo sapiens, UniProt P43119). To be noted: cited from earlier work.
The nature of series [1]: Stability test of crystal forms of Compound B (Test Example 1). Format: physicochemical. To be noted: for thermodynamic stability of the crystal form: Test Example 1, storage at 90° C.; for crystal form transformation on storage: storage at 90° C.; for Crystal form after 14 days: stored at 90° C. On the procedure:
Different crystal forms of Compound B were placed in glass bottles, respectively, and the glass bottles were hermetically sealed and stored at 90° C. Samples were taken out after 1 day, 5 days, and 14 days, and dissolved in methanol at a concentration of 1 mg/mL to determine related substances by HPLC. With respect to the crystals after 14 days, the crystal form was checked.

Series [2] can be described thus: Solvent suspending test of form-I crystal in different solvents (Test Example 2). The series is classed as physicochemical. To be noted: for Crystal form after 30 minutes at room temperature: stirring. On the procedure: The form-I crystal of the present invention was mixed with different solvents, and stirring was performed at room temperature for 30 minutes. The formed crystals were obtained by filtration, and the crystal forms were determined.

Where [3] appears, read: 90° C., after 1 day, hermetically sealed glass bottle.
Setting [4] is: 90° C., after 5 days, hermetically sealed glass bottle.
[5] abbreviates: 90° C., after 14 days, hermetically sealed glass bottle.
[6] abbreviates: hermetically sealed glass bottle.

Chain of PGI2 receptor (P43119 whole entry, species assumed): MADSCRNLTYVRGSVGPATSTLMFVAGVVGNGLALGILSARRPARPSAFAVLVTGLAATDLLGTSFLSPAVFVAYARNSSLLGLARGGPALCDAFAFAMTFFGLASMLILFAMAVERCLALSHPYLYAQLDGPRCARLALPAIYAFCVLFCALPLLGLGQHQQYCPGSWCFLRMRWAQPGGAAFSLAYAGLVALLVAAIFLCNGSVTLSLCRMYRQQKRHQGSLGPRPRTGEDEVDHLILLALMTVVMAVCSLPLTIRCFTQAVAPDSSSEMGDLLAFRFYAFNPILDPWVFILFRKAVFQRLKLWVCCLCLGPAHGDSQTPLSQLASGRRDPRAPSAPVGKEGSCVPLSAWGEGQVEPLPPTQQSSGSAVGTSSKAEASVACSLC

Take `CC(C)N(CCCCOCC(=O)O)c1cnc(-c2ccccc2)c(-c2ccccc2)n1` [Compound B, 2-{4-[N-(5,6-diphenylpyrazin-2-yl)-N-isopropylamino]butyloxy}acetic acid]: at PGI2 receptor, the “PGI2 receptor agonistic effect” value was “excellent”.
As to `CC(C)N(CCCCOCC(=O)O)c1cnc(-c2ccccc2)c(-c2ccccc2)n1` [Form-I, 2-{4-[N-(5,6-diphenylpyrazin-2-yl)-N-isopropylamino]butyloxy}acetic acid], the Appearance entry in series [1] (setting [3]) was “No change”; in series [1] (setting [4]) it was “No change”; in series [1] (setting [5]), “No change”; in series [1] (Before storage), “White crystal”. The “HPLC area (%)” value in series [1] (setting [3]) is listed as 99.8%; in series [1] (setting [4]), 99.8%; in series [1] (setting [5]), 99.6%; in series [1] (Before storage), 99.8%. The “thermodynamic stability of the crystal form” value in series [1] (listed as form-I crystal) is reported as “thermodynamically more stable”. Further, the “crystal form transformation on storage” value in series [1] is on record as “gradually transformed into the form-II”. For the same molecule, the “Crystal form after 14 days” value in series [1] (setting [6]) is recorded as “Form-I + Form-II”. In addition, the “crystal form transformation when suspended” value in series [2] (all the solvents, room temperature) is listed as “partially transformed into the form-II crystal of the present invention”. Moreover, the “Crystal form after 30 minutes at room temperature” value in series [2] (solvent 2-propanol) is given as “Form-I + Form-II (1:10)”; in series [2] (solvent cyclohexane), “Form-I + Form-II (1:1)”; in series [2] (solvent toluene), “Form-I + Form-II (10:1)”; in series [2] (solvent water), “Form-I + Form-II (10:1)”.
As for `CC(C)N(CCCCOCC(=O)O)c1cnc(-c2ccccc2)c(-c2ccccc2)n1` [Form-II, 2-{4-[N-(5,6-diphenylpyrazin-2-yl)-N-isopropylamino]butyloxy}acetic acid], the Appearance entry in series [1] (setting [3]) is recorded as “No change”; in series [1] (setting [4]), “No change”; in series [1] (setting [5]) it was “No change”; in series [1] (Before storage), “Yellow crystal”. Besides, the “HPLC area (%)” value in series [1] (setting [3]) amounted to 100%; in series [1] (setting [4]), 100%; in series [1] (setting [5]) it was 99.9%; in series [1] (Before storage), 100%. Moreover, the “thermodynamic stability of the crystal form” value in series [1] is recorded as “thermodynamically stable”; in series [1] (listed as form-II crystal) it was “thermodynamically more stable”. In addition, in series [1] (setting [6]), the “Crystal form after 14 days” value is “Form-II”. Also, the “thermodynamic stability of the crystal form when suspended” value in series [2] (various solvents at room temperature) is “thermodynamically stable”.
As for `CC(C)N(CCCCOCC(=O)O)c1cnc(-c2ccccc2)c(-c2ccccc2)n1` [Form-III, 2-{4-[N-(5,6-diphenylpyrazin-2-yl)-N-isopropylamino]butyloxy}acetic acid], the Appearance result was “No change” in series [1] (setting [3]), “No change” in series [1] (setting [4]), “No change” in series [1] (setting [5]) and “Yellow crystal” in series [1] (Before storage). For the same molecule, the “HPLC area (%)” value is 99.9% in series [1] (setting [3]), 99.9% in series [1] (setting [4]), 99.7% in series [1] (setting [5]) and 99.9% in series [1] (Before storage). In addition, in series [1] (listed as form-III crystal), the “thermodynamic stability of the crystal form” value is listed as “thermodynamically unstable”. Further, in series [1], the “crystal form transformation on storage” value is given as “gradually transformed into the form-II”. Further, the “Crystal form after 14 days” value in series [1] (setting [6]) was “Form-II”.
